In publication PMC4455059 (Nature Communications, 2015):
Read-outs that look alike come from different tables or passages of the source. One block for each molecule: values may come before it. Non-standard residues stand in square brackets, D forms with d. Residues, ends and D or L forms follow the SMILES beside them. Phe(3-I) = N[C@@H](Cc1cccc(I)c1)C(=O)O; Phe(4-I) = N[C@@H](Cc1ccc(I)cc1)C(=O)O

Assays:
[1] = tested on: SH-SY5Y cells; assay: Cytotoxicity, MTT assay; type: cell-based; conditions: 750 nM, 24 h incubation, triplicate, three independent experiments
Description: (§1) Finally, we studied the controlled labelling of the stapled peptides. The goal was to selectively attach a fluorophore to the C-terminal amino acid to trace cellular permeabilization and localization. Thus, we linked a Bodipy residue to cyclopeptide 2j through an amino spacer (the novel Bodipy construct was designed and prepared for this purpose, see Supplementary Fig. 16 and Supplementary Methods), to get the desired labelled-stapled peptide 2j Bodipy (Fig. 4c) in a convenient manner. […] The cells treated in this manner were analysed using confocal microscopy.
(§2) Supplementary Figure 17 Cytotoxicity of 1j-Bodipy and 2j-Bodipy peptides using the MTT assay. The toxicity assay was carried out as described in the literature.13 SH-SY5Y cells were transferred to 96-well plates (100 μL medium/well) at a density of 5000 cell/well. After 24 h, cells in triplicate were treated either with 1j-Bodipy or 2j-Bodipy (750 nM and 50 µM) or TRITON 0.2% as positive control for 24 h. Values are represented as means ± SD from three independent experiments.
(§3) Supplementary Figure 18 FACS analysis of SH-SY5Y cells upon incubation with 1j-Bodipy and 2j-Bodipy. For FACS analysis, SH-SY5Y cells were seeded on a plastic 24 well plate and cultured for 24 h. […] Fluorescence sorting was performed with a Gallios Beckman Coulter flow […]

[2] = tested on: SH-SY5Y cells; assay: Cell penetration and localization (FACS flow cytometry and confocal microscopy); type: cell-based; conditions: 750 nM
Description: as §1, §2, §3

[3] = cc_pd bond
[4] = tested on: several cancer cell lines; assay: Preliminary biological studies against several cancer cell lines; type: cell-based
Description: Nevertheless, the protocol seems general and offers new possibilities for peptide-based conjugation.

[5] = tested on: α-chymotrypsin; assay: chymotrypsin-based protocol; conditions: up to 6 h
[6] = molecular target: ανβ3 integrin receptors (Homo sapiens, UniProt P05106+P06756); assay: Inhibition of cellular adhesion (integrin antagonism); type: cell-based
Description: However, it has to be considered that even linear analogues display a much lower potency (10–10^3 times, depending on the targeted integrin) than the parent cilengitide.

[7] = tested on: chymotrypsin; assay: Proteolytic degradation assay (chymotrypsin-based protocol); type: in vitro ADME; conditions: for protection towards enzymatic degradation (in words): chymotrypsin, after 5–6 h, HPLC-MS profiles; for half-life: chymotrypsin-based protocol (protocol of ref 51), HPLC-MS read-out, Fig. 4b, read-out: t1/2, proteolytic degradation
Method: Figure 4 Bioactive stapled peptides, biochemical and cellular studies. (a) Structure of stapled peptides 2l (valorphin analogue) and 2m (baratin analogue). (b) Proteolytic degradation assay of stapled peptides 2g and 2h and their linear precursors 1g and 1h. (c) Structure of labelled-stapled peptide 2j Bodipy (left) and the corresponding confocal microscopy image of SH-SY5Y cells treated with compound 2j Bodipy (750 nM). Scale bar, 25 μm (right).
Next, we determined the proteolytic stability of a couple of meaningful stapled peptides, in comparison with their respective linear counterparts. We followed a chymotrypsin-based protocol, previously used to evaluate stapled peptides.

Sequence of ανβ3 integrin receptors (P06756 31-889 limits assumed): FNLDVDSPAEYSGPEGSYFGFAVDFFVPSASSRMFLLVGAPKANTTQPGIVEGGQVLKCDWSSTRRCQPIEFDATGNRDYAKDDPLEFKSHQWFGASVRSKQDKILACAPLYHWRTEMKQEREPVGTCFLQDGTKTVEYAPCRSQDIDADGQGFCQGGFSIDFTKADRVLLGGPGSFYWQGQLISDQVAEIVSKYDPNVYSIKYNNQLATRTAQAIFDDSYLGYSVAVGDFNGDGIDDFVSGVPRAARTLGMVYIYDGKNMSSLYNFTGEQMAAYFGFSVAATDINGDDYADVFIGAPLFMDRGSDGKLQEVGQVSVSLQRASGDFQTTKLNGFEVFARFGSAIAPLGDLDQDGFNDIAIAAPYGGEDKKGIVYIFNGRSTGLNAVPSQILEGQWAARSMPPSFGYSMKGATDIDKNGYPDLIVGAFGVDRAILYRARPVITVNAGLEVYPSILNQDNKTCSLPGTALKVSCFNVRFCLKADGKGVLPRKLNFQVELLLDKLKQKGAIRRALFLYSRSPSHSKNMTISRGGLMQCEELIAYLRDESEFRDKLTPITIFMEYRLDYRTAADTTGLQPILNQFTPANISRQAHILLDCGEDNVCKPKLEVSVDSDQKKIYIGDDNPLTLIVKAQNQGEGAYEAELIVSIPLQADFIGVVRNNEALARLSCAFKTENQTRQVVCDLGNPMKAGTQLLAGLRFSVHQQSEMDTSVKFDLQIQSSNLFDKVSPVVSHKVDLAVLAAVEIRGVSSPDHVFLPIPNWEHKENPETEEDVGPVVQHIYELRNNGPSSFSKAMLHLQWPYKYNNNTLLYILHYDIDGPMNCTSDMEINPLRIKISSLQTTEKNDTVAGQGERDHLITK
Sequence of ανβ3 integrin receptors (P06756 891-1048 partner limits assumed): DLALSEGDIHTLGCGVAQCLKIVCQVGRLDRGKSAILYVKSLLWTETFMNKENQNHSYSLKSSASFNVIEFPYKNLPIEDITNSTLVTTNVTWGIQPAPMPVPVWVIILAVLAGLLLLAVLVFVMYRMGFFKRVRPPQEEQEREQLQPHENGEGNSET
Sequence of ανβ3 integrin receptors (P05106 27-788): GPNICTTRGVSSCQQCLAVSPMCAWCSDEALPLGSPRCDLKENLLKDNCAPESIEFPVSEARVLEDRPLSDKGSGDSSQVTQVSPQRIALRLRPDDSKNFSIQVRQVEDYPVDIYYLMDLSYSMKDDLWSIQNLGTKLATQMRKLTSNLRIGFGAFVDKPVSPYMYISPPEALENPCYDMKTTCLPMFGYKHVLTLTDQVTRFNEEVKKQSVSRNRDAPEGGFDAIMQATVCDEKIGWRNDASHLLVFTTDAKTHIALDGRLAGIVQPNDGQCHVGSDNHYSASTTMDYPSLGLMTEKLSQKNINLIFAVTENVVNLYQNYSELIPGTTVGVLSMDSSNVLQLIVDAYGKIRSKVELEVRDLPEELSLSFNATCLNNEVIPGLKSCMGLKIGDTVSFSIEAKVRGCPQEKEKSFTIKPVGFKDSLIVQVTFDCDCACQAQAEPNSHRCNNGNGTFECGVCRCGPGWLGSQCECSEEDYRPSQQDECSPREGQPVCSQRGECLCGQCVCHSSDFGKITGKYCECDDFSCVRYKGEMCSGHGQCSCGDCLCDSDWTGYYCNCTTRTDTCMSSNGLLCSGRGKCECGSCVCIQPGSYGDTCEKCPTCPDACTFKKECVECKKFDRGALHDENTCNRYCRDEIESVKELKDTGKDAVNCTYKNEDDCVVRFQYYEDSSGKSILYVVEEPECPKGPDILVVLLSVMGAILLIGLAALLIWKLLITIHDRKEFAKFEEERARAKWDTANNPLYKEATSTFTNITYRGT

Molecule: CC(=O)N[C@@H](C)C(=O)N[C@H]1Cc2cccc(c2)-c2[nH]c3ccccc3c2C[C@@H](C(=O)N[C@@H](C)C(=O)NCCNC(=O)CCC(=O)Nc2ccc(C3=C4C(C)=CC(C)=[N+]4[B-](F)(F)n4c(C)cc(C)c43)cc2)NC(=O)[C@H](C(C)C)NC1=O [2j Bodipy]
cytotoxicity (in words) [1]: low cytotoxicity
cellular localization / penetration (in words) ([2]; incubation 30 min at 37 °C, confocal microscopy, fluorescence): localized both in the membrane and in the cytoplasmatic region
cell staining in flow cytometry (FACS) (in words) ([2]; incubation for 30 min, 37 °C, 5% CO2, fluorescence): brightly stained

Molecule: CC(=O)N[C@@H](C)C(=O)N[C@H]1Cc2ccc(cc2)-c2[nH]c3ccccc3c2C[C@@H](C(=O)N[C@@H](C)C(=O)O)NC(=O)[C@@H](NC(=O)[C@H](C)NC(C)=O)Cc2ccc(cc2)-c2[nH]c3ccccc3c2C[C@@H](C(=O)N[C@@H](C)C(=O)O)NC1=O [Ac-Ala-Phe(4-I)-Trp-Ala-OH]
ring closure, conversion ([3]; from Ac-Ala-Phe(4-I)-Trp-Ala-OH, 24-membered ring, Pd(OAc)2 5 mol%/AgBF4/TFA, MW 20 min, DMF, 63.0 mM, 90.0 °C): 60%

Molecule: CC(C)C[C@@H]1NC(=O)[C@H](Cc2ccc(I)cc2)NC(=O)[C@H](CC(C)C)NC(=O)[C@H](C(C)C)NC(=O)[C@H](CC(C)C)NC1=O [compound 4] (cyclo(LLVL[Phe(4-I)]))
IC50 [4]: < 10 µM

cleaved bond [5]: m-I-Phe-Asn
Molecule: Ac-[Phe(3-I)]NGRW-NH2

Molecule: CC(=O)N[C@@H](C)C(=O)N[C@H]1Cc2cccc(c2)-c2[nH]c3ccccc3c2C[C@@H](C(=O)N[C@@H](C)C(=O)O)NC1=O [Ac-Ala-Phe(3-I)-Trp-Ala-OH?]
ring closure, conversion ([3]; from Ac-Ala-Phe(3-I)-Trp-Ala-OH?, 11-membered ring, Pd(OAc)2/AgBF4/TFA?): 60%

Molecule: CC(=O)N[C@H]1Cc2cccc(c2)-c2[nH]c3ccccc3c2C[C@@H](C(N)=O)NC(=O)[C@H](CCCNC(=N)N)NC(=O)CNC(=O)[C@H](CC(N)=O)NC1=O [Ac-Phe(3-I)-Asn-Gly-Arg-Trp-NH2]
ring closure, conversion ([3]; from Ac-Phe(3-I)-Asn-Gly-Arg-Trp-NH2, 20-membered ring, Pd(OAc)2 5 mol%/AgBF4/TFA, MW 20 min, DMF, 49.0 mM, 90.0 °C): 77%

protection towards enzymatic degradation (in words) [7]: almost total protection
Molecule: CC(=O)N[C@H]1Cc2cccc(c2)-c2[nH]c3ccccc3c2C[C@@H](C(N)=O)NC(=O)[C@H](CC(=O)O)NC(=O)CNC(=O)[C@H](CCCNC(=N)N)NC1=O [2h]
selectivity ανβ3 versus ανβ5 integrin receptors (in words) ([6]; preliminary cellular adhesion studies): act selectively as antagonists for the ανβ3 in front of ανβ5 integrin receptors

cleaved bond [5]: m-I-Phe-Arg
Molecule: Ac-[Phe(3-I)]RGDW-NH2

Molecule: CC(=O)N[C@@H](C)C(=O)N[C@H]1Cc2ccc(O)c(c2)-c2[nH]c3ccccc3c2C[C@@H](C(=O)N[C@@H](C)C(=O)O)NC(=O)[C@H](C)NC(=O)[C@H](C)NC(=O)[C@H](C)NC1=O [Ac-Ala-Tyr(3-I)-Ala-Ala-Ala-Trp-Ala-OH]
ring closure, conversion ([3]; from Ac-Ala-Tyr(3-I)-Ala-Ala-Ala-Trp-Ala-OH, 20-membered ring, Pd(OAc)2 5 mol%/AgBF4/2-NO2BzOH, MW 15 min, DMF:PBS 1:1, 80.0 °C): 100%

Molecule: CC(=O)N[C@@H](C)C(=O)N[C@H]1Cc2cccc(c2)-c2[nH]c3ccccc3c2C[C@@H](C(=O)N[C@@H](C)C(=O)O)NC(=O)[C@H](C)NC(=O)[C@H](C)NC1=O [Ac-Ala-Phe(3-I)-Ala-Ala-Trp-Ala-OH]
ring closure, conversion ([3]; from Ac-Ala-Phe(3-I)-Ala-Ala-Trp-Ala-OH, 17-membered ring, Pd(OAc)2 5 mol%/AgBF4/2-NO2BzOH, MW 15 min, DMF:PBS 1:1, 80.0 °C): 100%

EC50 ([6]; preliminary studies, ανβ3 integrin antagonism, read-out: EC50, capacity to inhibit cellular adhesion): 26 µM
half-life [7]: 52.5 min
protection towards enzymatic degradation (in words) [7]: completely disappeared
Molecule: CC(=O)N[C@@H](Cc1cccc(I)c1)C(=O)N[C@@H](CCCNC(=N)N)C(=O)NCC(=O)N[C@@H](CC(=O)O)C(=O)N[C@@H](Cc1c[nH]c2ccccc12)C(N)=O [1h, Ac-m-I-Phe-Arg-Gly-Asp-Trp-NH2] (Ac-[Phe(3-I)]RGDW-NH2)

Molecule: CC(=O)N[C@@H](C)C(=O)N[C@H]1Cc2cccc(c2)-c2[nH]c3ccccc3c2C[C@@H](C(=O)N[C@@H](C)C(=O)O)NC(=O)[C@H](C(C)C)NC1=O [Ac-Ala-Phe(3-I)-Val-Trp-Ala-OH]
ring closure, conversion ([3]; from Ac-Ala-Phe(3-I)-Val-Trp-Ala-OH, 14-membered ring, Pd(OAc)2 5 mol%/AgBF4/TFA, MW 20 min, DMF, 55.0 mM, 90.0 °C): 71%

Molecule: CC(=O)N[C@H]1Cc2cccc(c2)-c2[nH]c3ccccc3c2C[C@@H](C(N)=O)NC(=O)[C@H](CC(=O)O)NC(=O)CNC(=O)[C@H](CCCNC(=N)N)NC1=O [Ac-Phe(3-I)-Arg-Gly-Asp-Trp-NH2]
ring closure, conversion ([3]; from Ac-Phe(3-I)-Arg-Gly-Asp-Trp-NH2, 20-membered ring, Pd(OAc)2 5 mol%/AgBF4/TFA, MW 20 min, DMF, 49.0 mM, 90.0 °C): 70%

Molecule: CC(=O)N[C@@H](C)C(=O)N[C@H]1Cc2ccccc2-c2[nH]c3ccccc3c2C[C@@H](C(=O)N[C@@H](C)C(=O)O)NC1=O [Ac-Ala-Phe(2-I)-Trp-Ala-OH?]
ring closure, conversion ([3]; from Ac-Ala-Phe(2-I)-Trp-Ala-OH?, 10-membered ring, Pd(OAc)2/AgBF4/TFA?): 0%

Molecule: CC(=O)N[C@@H](C)C(=O)N[C@H]1Cc2ccc(O)c(c2)-c2[nH]c3ccccc3c2C[C@@H](C(=O)N[C@@H](C)C(=O)O)NC(=O)[C@H](C)NC1=O [Ac-Ala-Tyr(3-I)-Ala-Trp-Ala-OH]
ring closure, conversion ([3]; from Ac-Ala-Tyr(3-I)-Ala-Trp-Ala-OH, 14-membered ring, Pd(OAc)2 5 mol%/AgBF4/2-NO2BzOH, MW 15 min, DMF:PBS 1:1, 80.0 °C): 100%

Molecule: CC(=O)N[C@@H](C)C(=O)N[C@H]1Cc2cccc(c2)-c2[nH]c3ccccc3c2C[C@@H](C(=O)N[C@@H](C)C(=O)O)NC(=O)[C@H](C)NC1=O [Ac-Ala-Phe(3-I)-Ala-Trp-Ala-OH]
ring closure, conversion ([3]; from Ac-Ala-Phe(3-I)-Ala-Trp-Ala-OH, 14-membered ring, Pd(OAc)2 5 mol%/AgBF4/2-NO2BzOH, MW 15 min, DMF:PBS 1:1, 80.0 °C): 38%

Molecule: CC(=O)N[C@@H](C)C(=O)N[C@H]1Cc2ccc(O)c(c2)-c2[nH]c3ccccc3c2C[C@@H](C(=O)N[C@@H](C)C(=O)O)NC(=O)[C@H](C)NC(=O)[C@H](C)NC1=O [Ac-Ala-Tyr(3-I)-Ala-Ala-Trp-Ala-OH]
ring closure, conversion ([3]; from Ac-Ala-Tyr(3-I)-Ala-Ala-Trp-Ala-OH, 17-membered ring, Pd(OAc)2 5 mol%/AgBF4/2-NO2BzOH, MW 15 min, DMF:PBS 1:1, 80.0 °C): 100%

Molecule: C[C@@H]1NC(=O)[C@H](CCCNC(=N)N)NC(=O)CNC(=O)[C@H](CC(N)=O)NC(=O)[C@H](C)NC(=O)[C@H](Cc2c[nH]c3ccccc23)NC1=O [compound 3] (cyclo(ANGRAW))
activity against several cancer cell lines (in words) [4]: only the cyclopeptide 4 showed activity

Molecule: C[C@H](N)C(=O)N[C@H]1Cc2cccc(c2)-c2[nH]c3ccccc3c2C[C@@H](C(=O)N[C@@H](C)C(=O)O)NC(=O)[C@H](C)NC(=O)[C@H](CO)NC1=O [H-Ala-Phe(3-I)-Ser-Ala-Trp-Ala-OH]
ring closure, conversion ([3]; from H-Ala-Phe(3-I)-Ser-Ala-Trp-Ala-OH, 17-membered ring, Pd(OAc)2 5 mol%/AgBF4/TFA, MW 20 min, DMF, 54.0 mM, 90.0 °C): 39%

half-life [7]: 19.8 min
protection towards enzymatic degradation (in words) [7]: completely disappeared
Molecule: CC(=O)N[C@@H](Cc1cccc(I)c1)C(=O)N[C@@H](CC(N)=O)C(=O)NCC(=O)N[C@@H](CCCNC(=N)N)C(=O)N[C@@H](Cc1c[nH]c2ccccc12)C(N)=O [1g, Ac-m-I-Phe-Asn-Gly-Arg-Trp-NH2] (Ac-[Phe(3-I)]NGRW-NH2)

Molecule: CC(=O)N[C@@H](C)C(=O)N[C@H]1Cc2cccc(c2)-c2[nH]c3ccccc3c2C[C@@H](C(=O)N[C@@H](C)C(=O)O)NC(=O)[C@H](C)NC(=O)[C@H](C)NC(=O)[C@H](C)NC1=O [Ac-Ala-Phe(3-I)-Ala-Ala-Ala-Trp-Ala-OH]
ring closure, conversion ([3]; from Ac-Ala-Phe(3-I)-Ala-Ala-Ala-Trp-Ala-OH, 20-membered ring, Pd(OAc)2 5 mol%/AgBF4/2-NO2BzOH, MW 15 min, DMF:PBS 1:1, 80.0 °C): 100%
